Assay results reported in patent US6737383B1, “Herbicidal oxadiazolidines” (priority 1999, dated 2004).

How the values were obtained:
[1] = tested on: soybean; test: Test B pre/postemergence soybean; format: in vivo, Glycine max
Procedure, shortened: (§1)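 Herbicidal effect was estimated by eye on a ten-point control scale after plants spent twelve to sixteen days in a greenhouse following soil or foliar treatment. Foliar sprays targeted plants at one to four leaves; all doses were formulated in a non-phytotoxic solvent with surfactant.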

[2] = tested on: bamyardgrass; test: Test B flood test barnyardgrass; format: in vivo, Echinochloa crus-galli
Procedure, shortened: (§2)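 Read-out is a visual response score from 0 (no effect) to 10 (complete control), assigned by comparison with untreated controls. Treatment was applied at the 2-leaf stage, and plants stayed in the greenhouse for twelve to sixteen days before scoring.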

[3] = tested on: smallflower flatsedge; test: Test B flood test smallflower flatsedge; format: in vivo, Cyperus difformis
Procedure, shortened: as §2

[4] = tested on: sugar beet; test: Test B pre/postemergence sugar beet; format: in vivo, Beta vulgaris
Procedure, shortened: as §1

[5] = tested on: cocklebur; test: Test B pre/postemergence cocklebur; format: in vivo, Xanthium strumarium
Procedure, shortened: as §1

[6] = tested on: wheat; test: Test B pre/postemergence wheat; format: in vivo, Triticum aestivum
Procedure, shortened: as §1

[7] = tested on: rice; test: Test B flood test rice; format: in vivo, Oryza sativa
Procedure, shortened: as §2

[8] = tested on: duck salad; test: Test B flood test duck salad; format: in vivo, Heteranthera limosa
Procedure, shortened: as §2

[9] = tested on: blackgrass; test: Test B pre/postemergence blackgrass; format: in vivo, Alopecurus myosuroides
Procedure, shortened: as §1

[10] = tested on: crabgrass; test: Test B pre/postemergence crabgrass; format: in vivo, Digitaria sanguinalis
Procedure, shortened: as §1

[11] = tested on: rape; test: Test B pre/postemergence rape; format: in vivo, Brassica napus
Procedure, shortened: as §1

[12] = tested on: surinam grass; test: Test B pre/postemergence surinam grass; format: in vivo, Brachiaria decumbens
Procedure, shortened: as §1

[13] = tested on: giant foxtail; test: Test B pre/postemergence giant foxtail; format: in vivo, Setaria faberii
Procedure, shortened: as §1

[14] = tested on: corn; test: Test B pre/postemergence corn; format: in vivo, Zea mays
Procedure, shortened: as §1

[15] = tested on: purple nutsedge; test: Test B pre/postemergence purple nutsedge; format: in vivo, Cyperus rotundus
Procedure, shortened: as §1

[16] = tested on: pigweed; test: Test B pre/postemergence pigweed; format: in vivo, Amaranthus retroflexus
Procedure, shortened: as §1

[17] = Postemergence, Rate 62 g/ha, scale 0 to 10, 0 is no effect, 10 is complete control
[18] = Postemergence, Rate 250 g/ha, scale 0 to 10, 0 no effect, 10 complete control
[19] = Preemergence, Rate 62 g/ha, scale 0 to 10 (0 no effect, 10 complete control)
[20] = Preemergence, Rate 125 g/ha, scale 0 to 10 (0 no effect, 10 complete control)
[21] = Preemergence, Rate 250 g/ha, scale of 0 to 10 where 0 is no effect and 10 is complete control
[22] = Preemergence, Rate 500 g/ha, scale 0 (no effect) to 10 (complete control)
[23] = Rate 125 g/ha, Postemergence, scale 0 to 10, 0 no effect, 10 complete control
[24] = Rate 500 g/ha, Postemergence, scale 0 to 10, 0 no effect, 10 complete control
[25] = Rate 125 g/ha, Postemergence section (flood test species), scale 0 to 10, 0 no effect, 10 complete control
[26] = Rate 500 g/ha, listed under Postemergence (flood test species), scale 0 to 10, 0 no effect, 10 complete control
[27] = flood test, listed under Postemergence, Rate 250 g/ha, scale 0 to 10, 0 no effect, 10 complete control

Cc1cc(C)c(-n2c(=O)on(C(=O)N(c3ccc(Cl)cc3)C(C)C)c2=O)c(C)c1 [Compound 61]
Soybean plant response rating [1, 17]: 1
Soybean plant response rating [1, 18]: 4
Soybean plant response rating [1, 19]: 0
Plant response rating, Soybean [1, 20]: 0
Plant response rating, Soybean [1, 21]: 0
Soybean plant response rating [1, 22]: 0
Soybean plant response rating [1, 23]: 3
Soybean plant response rating [1, 24]: 5
Barnyardgrass plant response rating [2, 17]: 0
Barnyardgrass plant response rating [2, 25]: 0
Barnyardgrass plant response rating [2, 26]: 0
Barnyardgrass plant response rating [2, 27]: 0
S. Flatsedge plant response rating [3, 17]: 0
S. Flatsedge plant response rating [3, 25]: 0
S. Flatsedge plant response rating [3, 26]: 0
S. Flatsedge plant response rating [3, 27]: 0
Sugarbeets plant response rating [4, 17]: 0
Sugarbeets plant response rating [4, 18]: 2
Sugarbeets plant response rating [4, 19]: 0
Plant response rating, Sugarbeets [4, 20]: 0
Plant response rating, Sugarbeets [4, 21]: 5
Sugarbeets plant response rating [4, 22]: 6
Sugarbeets plant response rating [4, 23]: 2
Sugarbeets plant response rating [4, 24]: 6
Cocklebur plant response rating [5, 17]: 0
Cocklebur plant response rating [5, 18]: 0
Cocklebur plant response rating [5, 19]: 0
Plant response rating, Cocklebur [5, 20]: 0
Plant response rating, Cocklebur [5, 21]: 0
Cocklebur plant response rating [5, 22]: 0
Cocklebur plant response rating [5, 23]: 0
Cocklebur plant response rating [5, 24]: 1
Wheat plant response rating [6, 17]: 0
Wheat plant response rating [6, 18]: 0
Wheat plant response rating [6, 19]: 0
Plant response rating, Wheat [6, 20]: 0
Plant response rating, Wheat [6, 21]: 0
Wheat plant response rating [6, 22]: 0
Wheat plant response rating [6, 23]: 0
Wheat plant response rating [6, 24]: 0
Rice plant response rating [7, 17]: 0
Rice plant response rating [7, 25]: 0
Rice plant response rating [7, 26]: 0
Rice plant response rating [7, 27]: 0
Ducksalad plant response rating [8, 17]: 0
Ducksalad plant response rating [8, 25]: 0
Ducksalad plant response rating [8, 26]: 0
Ducksalad plant response rating [8, 27]: 0
Blackgrass plant response rating [9, 17]: 0
Blackgrass plant response rating [9, 18]: 6
Blackgrass plant response rating [9, 19]: 0
Plant response rating, Blackgrass [9, 20]: 0
Plant response rating, Blackgrass [9, 21]: 5
Blackgrass plant response rating [9, 22]: 6
Blackgrass plant response rating [9, 23]: 3
Blackgrass plant response rating [9, 24]: 7
Crabgrass plant response rating [10, 17]: 0
Crabgrass plant response rating [10, 18]: 0
Crabgrass plant response rating [10, 19]: 0
Plant response rating, Crabgrass [10, 20]: 4
Plant response rating, Crabgrass [10, 21]: 7
Crabgrass plant response rating [10, 22]: 8
Crabgrass plant response rating [10, 23]: 0
Crabgrass plant response rating [10, 24]: 0
Rape plant response rating [11, 17]: 0
Rape plant response rating [11, 18]: 0
Rape plant response rating [11, 19]: 0
Plant response rating, Rape [11, 20]: 0
Plant response rating, Rape [11, 21]: 0
Rape plant response rating [11, 22]: 0
Rape plant response rating [11, 23]: 0
Rape plant response rating [11, 24]: 3
B. signalgrass plant response rating [12, 17]: 0
B. signalgrass plant response rating [12, 18]: 0
B. signalgrass plant response rating [12, 19]: 0
Plant response rating, B. signalgrass [12, 20]: 1
Plant response rating, B. signalgrass [12, 21]: 5
B. signalgrass plant response rating [12, 22]: 5
B. signalgrass plant response rating [12, 23]: 0
B. signalgrass plant response rating ([12]; Rate 500 g/ha, Postemergence, scale of 0 to 10 where 0 is no effect and 10 is complete control): 1
Giant foxtail plant response rating [13, 17]: 0
Giant foxtail plant response rating [13, 18]: 0
Giant foxtail plant response rating [13, 19]: 3
Plant response rating, Giant foxtail [13, 20]: 7
Plant response rating, Giant foxtail [13, 21]: 9
Giant foxtail plant response rating [13, 22]: 10
Giant foxtail plant response rating [13, 23]: 0
Giant foxtail plant response rating [13, 24]: 0
Corn plant response rating [14, 17]: 0
Corn plant response rating [14, 18]: 0
Corn plant response rating [14, 19]: 0
Plant response rating, Corn [14, 20]: 0
Plant response rating, Corn [14, 21]: 0
Corn plant response rating [14, 22]: 0
Corn plant response rating [14, 23]: 0
Corn plant response rating [14, 24]: 0
Nutsedge plant response rating [15, 17]: 0
Nutsedge plant response rating [15, 18]: 0
Nutsedge plant response rating [15, 19]: 0
Plant response rating, Nutsedge [15, 20]: 0
Plant response rating, Nutsedge [15, 21]: 0
Nutsedge plant response rating [15, 22]: 0
Nutsedge plant response rating [15, 23]: 0
Nutsedge plant response rating [15, 24]: 0
Redroot pigweed plant response rating [16, 17]: 1
Redroot pigweed plant response rating [16, 18]: 3
Redroot pigweed plant response rating [16, 19]: 0
Plant response rating, Redroot pigweed [16, 20]: 0
Plant response rating, Redroot pigweed [16, 21]: 1
Redroot pigweed plant response rating [16, 22]: 3
Redroot pigweed plant response rating [16, 23]: 2
Redroot pigweed plant response rating [16, 24]: 4
